# Laboratory results published in patent US20040043992A1, “Meloxicam for alleviating organ injury during organ operation or transplantation” (Boehringer Ingelheim International GmbH, priority 2002, published 2004).
# Like-named read-outs stand apart in the source and are kept apart here. Square brackets hold non-standard residues; d marks the D form. Peptide text beside a SMILES is read from it. Nle = CCCC[C@H](N)C(=O)O
# What was measured:
# [1] = tested on: ischemia/reperfusion injury of the liver; test: in vivo warm ischemia (Pringle's maneuver) and reperfusion of the liver in rats; parameters: species or system male Wistar rats; details: for Creatinine / GPT / LDH / TNF-alpha: 30 minutes warm ischemia of the liver, 60 minutes of reperfusion, GdCl3 10 mg/kg 24 hours prior
# Description: In the following experiment, the ability of an in vivo treatment with meloxicam to reduce ischemia/reperfusion injury of the liver was assessed.
# For this purpose, male Wistar rats (250 g to 280 g body weight) were anesthetized with intraperitoneal application of pentobarbital (50 mg/kg body weight) and atropine (0.05 mg). All animals were subjected to a 30 minutes warm ischemia of the liver (Pringle's maneuver) and 60 minutes of reperfusion after median lapatomtomy.
# One group of animals received no additional treatment (Control group). Another group was given 1 mg/kg body weight meloxicam just prior to the operation (COX-2I group). A third group was given 10 mg/kg body weight gadolinium chloride (GdCl3) 24 hours prior to the operation (GdCl3 group). A fourth group was given 10 mg/kg body weight gadolinium chloride 24 hours prior to operation and 1 mg/kg body weight meloxicam just prior to the operation (GdCl3+COX-2I group). Gadolinium chloride provides for a selective depletion of the liver Kupffer cells.
# To assess and compare the level of injury in all groups of animals, a measurement of the enzyme release of glutamate pyruvate transaminase (GPT) and lactate dehydrogenase (LDH) was measured as indicator of hepatocellular injury, and the release of creatinine and TNF-alpha as an indicator of inflammation. To quantify the cellular damage on a structural level, histochemistry was performed with HE staining as well as immunohistochemistry using the TUNEL assay to quantify the apoptotic changes of the livers.
# [2] = tested on: livers of NHBDs (Non Heart Beating Donors); test: ischemic in vitro preservation and reperfusion of livers of Non Heart Beating Donors; parameters: species or system Wistar rat; details: meloxicam 4.6 mg/kg body weight added to HTK solution; 60 minutes warm ischemia, 24 hours at 4° C., 45 minutes of reperfusion
# Description: A previous (unpublished) study was been performed by the inventors on the ischemic in vitro preservation of livers of NHBDs (Non Heart Beating Donors). The aim of this study was to test the ability of meloxicam to ameliorate the ischemia/reperfusion injury of these livers. The experiments were performed using a Wistar rat model. Cardiac arrest was induced in Wistar rats under anesthesia by phrenotomy. The livers were excised after 60 minutes of warm ischemia, flushed with 20 mL of Ringer's solution containing heparin and subsequently with 60 mL of Histidine-Tryptophane-Cetoglutarate (or HTK) solution and preserved for 24 hours at 4° C. In half of the experiments, meloxicam (4.6 mg/kg body weight) was added to the HTK solution. Reperfusion was carried out in vitro (3 mL/g/min) with oxygenated buffer at 37° C. After 45 minutes of reperfusion, portal venous pressure (PVP) was measured to evaluate vascular conductivity, the enzyme release of alanine aminotransferase (ALT) and […] (GLDH) was measured as indicator of hepatocellular injury, and the bile production and oxygen consumption (VO2) as parameter of functional recovery of the livers. To estimate the impact of oxygen free radicals, the production of malondialdehyde was measured in the hepatic effluent.
# [3] = tested on: warm ischemia/reperfusion injury (hepatic parenchymal injury); details: pre- and post-ischemic administration; serum ALT, AST, LDH, HA; cited from earlier work
# [4] = tested on: liver injuries after Pringle's maneuver; details: cited from earlier work; for number of polymorphonuclear neutrophils, lower than in untreated animals: 1 mg/kg
# [5] = tested on: injury associated with ischemia/reperfusion of the brain, liver, kidney, lung, intestine, heart, and pancreas; details: administered 30 minutes prior to an hemorrhagic shock; cited from earlier work
# [6] = tested on: ischemia/reperfusion injury during organ operation or transplantation; details: in vivo; cited from earlier work
# [7] = meloxicam 1 mg/kg just prior to operation
# [8] = 1 mg/kg via the portal vein, 60 minutes warm ischemia
compound,measurement,setting,value
"Cc1cnc(NC(=O)C2=C(O)c3ccccc3S(=O)(=O)N2C)s1 [COX-2I, 4-hydroxy-2-methyl-N-(5-methyl-2-thiazolyl)-2H-1,2-benzothiazine-3-carboxamide-1,1-dioxide]",Creatinine,[1]; [7],0.65 mg/dL
same,GPT,[1]; [7],973 Units/liter
same,LDH,[1]; [7],6765 Units/liter
same,TNF-alpha,[1]; [7],3.5 pg/mL serum
same,lower level of GPT compared to the untreated Control group,[1]; [7],3 times
same,lower level of LDH compared to the untreated Control group,[1]; [7],4 times
same,lower level of TNF-alpha compared to the untreated Control group,[1]; [7],5 times
same,lower level of creatinine compared to the untreated Control group,[1]; [7],2 times
same,"necrotic and apoptotic changes of the liver (HE staining, TUNEL assay)","[1]; meloxicam treated groups, histochemistry",less necrotic as well as less apoptotic changes
same,reduction of infiltration of MPO (myloperoxidase) positive cells into the liver after I/R,[1]; myeloperoxidase reaction (Hanker-Yates solution),~50%
same,in vitro preservation of grafts from NHBDs,[2],improves the in vitro preservation of grafts from NHBDs
same,production of free oxygen radicals during reperfusion (malondialdehyde in hepatic effluent),[2],decreased the production of free oxygen radicals during reperfusion
"CC(=O)c1ccc(NS(C)(=O)=O)c(Oc2ccc(F)cc2F)c1 [FK3311, 4′-acetyl-2′-(2,4-difluorophenoxy)methanesulfonanilide]",protection against warm ischemia/reperfusion injury,[3],satisfactory protection
same,"level of serum enzyme activity (GOT, GPT, LDH) relative to untreated animals",[4]; [8],about half
same,time after reperfusion by which blood flow recovered to the pre-ischemic level,[4]; [8],≤ 30 min
same,"number of polymorphonuclear neutrophils, lower than in untreated animals",[4]; 1 hour after reperfusion,about 40%
same,"number of polymorphonuclear neutrophils, lower than in untreated animals",[4]; 6 hours after reperfusion,about 25%
"[Cl][Gd]([Cl])[Cl] [GdCl3, gadolinium chloride]",Creatinine,[1]; [7],0.94 mg/dL
same,GPT,[1]; [7],1611 Units/liter
same,LDH,[1]; [7],12100 Units/liter
same,TNF-alpha,[1]; [7],8.05 pg/mL serum
"CC(=N)NCCCC[C@H](N)C(=O)O.Cl.Cl [LNIL, L-N^6-(L-iminoethyl)lysine dihydrochloride]",injury associated with ischemia/reperfusion of organs,[5],may also contribute to a protective effect
CC(=O)Oc1ccccc1C(=O)O [aspirin],reduction of ischemia/reperfusion injury during organ operation or transplantation,[6],did not significantly reduce
CCCC[C@@H](C=O)NC(=O)[C@H](CC(C)C)NC(=O)[C@H](CC(C)C)NC(C)=O [calpain inhibitor I] (Ac-Leu-Leu-[Nle]-aldehyde),injury associated with ischemia/reperfusion of organs,[5],reduces the injury
COc1ccc2c(c1)c(CC(=O)O)c(C)n2C(=O)c1ccc(Cl)cc1 [indomethacin],reduction of ischemia/reperfusion injury during organ operation or transplantation,[6],did not significantly reduce
